Laboratory results published in patent US7491844B2, “Therapeutic cyclopentane derivatives” (Allergan, Inc., priority 2006, dated 2009).

Columns and labels:
EP4 receptors = biological target: T1, EP4 receptors (Homo sapiens, UniProt P35408); assay: Radioligand binding, [3H]PGE2, HEK-293 cells expressing EP4
T1 construct: expressed in transfected cells; host or cells: HEK-293 (plasma membrane fraction)
Experimental: HEK-293 cells stably expressing the human or feline FP receptor, or EP1, EP2, or EP4 receptors were washed with TME buffer, scraped from the bottom of the flasks, and homogenized for 30 sec using a Brinkman PT 10/35 polytron. TME buffer was added to achieve a final 40 ml volume in the centrifuge tubes (the composition of TME is 100 mM TRIS base, 20 mM MgCl2, […]; 10N HCl is added to achieve a pH of 7.4).
The cell homogenate was centrifuged at 19000 r.p.m. for 20 min at 4° C. using a Beckman Ti-60 rotor. The resultant pellet was resuspended in TME buffer to give a final 1 mg/ml protein concentration, as determined by Biorad assay. Radioligand binding competition assays vs. [^3H-]17-phenyl PGF2 ? (5 nM) were performed in a 100 μl volume for 60 min. Binding reactions were started by adding plasma membrane fraction. The reaction was terminated by the addition of 4 ml ice-cold TRIS-HCl buffer and rapid filtration through glass fiber GF/B filters using a Brandel cell harvester. The filters were washed 3 times with ice-cold buffer and oven dried for one hour.
[^3H-] PGE2 (specific activity 180 Ci mmol) was used as the radioligand for EP receptors. [^3H] 17-phenyl PGF2 ? was employed for FP receptor binding studies. […] 17-phenyl PGF2 ? and non-specific binding determined with 10^−5M of unlabeled PGE2, or 17-phenyl PGF2 ? , according to receptor subtype studied.

hEP2/Gqs5 = biological target: T2, hEP2/Gqs5 (Homo sapiens, UniProt P43116); assay: FLIPR calcium signal, HEK-293(EBNA) cells; type: cell-based; conditions: value outside the parentheses; read-out: Ca2+ Signal-EC50 (nM) EP2
T2 construct: expressed in transfected cells; host or cells: HEK-293(EBNA)
Experimental: (§1) HEK-293(EBNA) cells, stably expressing one type or subtype of recombinant human prostaglandin receptors (prostaglandin receptors expressed: hDP/Gqs5; hEP1; hEP2/Gqs5; hEP3A/Gqi5; hEP4/Gqs5; hFP; hiP; hTP), were cultured in 100 mm culture dishes in high-glucose DMEM medium containing 10% fetal bovine serum, 2 mM l-glutamine, 250 ? g/ml geneticin (G418) and 200 ? g/ml hygromycin B as selection markers, and 100 units/ml penicillin G, 100 ? g/ml streptomycin and 0.25 ? g/ml amphotericin B.
(§2) Cells were seeded at a density of 5×10^4 cells per well in Biocoat® Poly-D-lysine-coated black-wall, clear-bottom 96-well plates (Becton-Dickinson) and allowed to attach overnight in an incubator at 37° C. Cells were then washed two times with HBSS-HEPES buffer (Hanks Balanced Salt Solution without bicarbonate and phenol red, 20 mM HEPES, pH 7.4) using a Denley Cellwash plate washer (Labsystems). After 45 minutes of dye-loading in the dark, using the calcium-sensitive dye Fluo-4 AM at a final concentration of 2 ? M, plates were washed four times with HBSS-HEPES buffer to remove excess dye leaving 100 ? l in each well. Plates were re-equilibrated to 37° C. for a few minutes.
(§3) Cells were excited with an Argon laser at 488 nm, and emission was measured through a 510-570 nm bandwidth emission filter (FLIPR™, Molecular Devices, Sunnyvale, Calif.). Drug solution was added in a 50 ? l volume to each well to give the desired final concentration. The peak increase in fluorescence intensity was recorded for each well. On each plate, four wells each served as negative (HBSS-HEPES buffer) and positive controls (standard agonists: BW245C (hDP); PGE2 (hEP1; hEP2/Gqs5; hEP3A/Gqi5; hEP4/Gqs5); PGF2 ? (hFP); carbacyclin (hIP); U-46619 (hTP), depending on receptor). The peak fluorescence change in each drug-containing well was then expressed relative to the controls.
(§4) Compounds were tested in a high-throughput (HTS) or concentration-response (CoRe) format. In the HTS format, forty-four compounds per plate were examined in duplicates at a concentration of 10^−5 M. To generate concentration-response curves, four compounds per plate were tested in duplicates in a concentration range between 10^−5 and 10^−11 M. The duplicate values were averaged. In either, HTS or CoRe format each compound was tested on at least 3 separate plates using cells from different passages to give an n≧3.

hEP3A/Gqi5 = biological target: T3, hEP3A/Gqi5 (Homo sapiens, UniProt P43115); assay: FLIPR calcium signal, HEK-293(EBNA) cells; type: cell-based; conditions: read-out: Ca2+ Signal-EC50 (nM) EP3
T3 construct: expressed in transfected cells; host or cells: HEK-293(EBNA)
T3 sequence (P43115 1-390): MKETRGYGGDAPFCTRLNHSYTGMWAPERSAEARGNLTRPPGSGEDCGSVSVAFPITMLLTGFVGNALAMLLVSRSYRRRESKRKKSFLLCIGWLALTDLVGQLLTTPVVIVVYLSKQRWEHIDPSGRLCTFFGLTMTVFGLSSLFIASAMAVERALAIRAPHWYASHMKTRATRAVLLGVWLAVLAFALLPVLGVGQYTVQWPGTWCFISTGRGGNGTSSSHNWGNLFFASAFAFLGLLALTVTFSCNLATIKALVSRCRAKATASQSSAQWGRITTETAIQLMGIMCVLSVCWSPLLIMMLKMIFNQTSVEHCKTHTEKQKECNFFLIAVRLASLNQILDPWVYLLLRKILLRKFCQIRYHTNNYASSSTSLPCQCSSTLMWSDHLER
Experimental: as §1, §2, §3, §4

hEP4/Gqs5 = biological target: T4, hEP4/Gqs5 (Homo sapiens, UniProt P35408); assay: FLIPR calcium signal, HEK-293(EBNA) cells; type: cell-based; conditions: read-out: Ca2+ Signal-EC50 (nM) EP4
T4 construct: expressed in transfected cells; host or cells: HEK-293(EBNA)
Experimental: as §1, §2, §3, §4

EP2 = EP2 (Homo sapiens, UniProt P43116); assay: Competition radioligand binding, [3H]PGE2, HEK 293 cells expressing EP2; set-up: expressed in transfected cells; host or cells: HEK 293 (membranes or whole cells)
Experimental: Competition binding experiments were performed in a medium containing Hank's balanced salt solution, Hepes 20 mM, pH 7.3, membranes (˜60 μg protein) or 2×10^5 cells from HEK 293 cells stably expressing human EP2 receptors, [^3H]PGE2 (10 nM) and various concentrations of test compounds in a total volume of 300 μl. Reaction mixtures were incubated at 23° C. for 60 min, and were filtered over Whatman GF/B filters under vacuum. Filters were washed three times with 5 ml ice-cold buffer containing 50 mM Tris/HCl (pH 7.3). Non-specific binding was estimated in the presence of excess unlabeled PGE2 (10 μM). Binding data fitted to the binding model for a single class of binding sites, using nonlinear regression analysis. IC50 values thus obtained were converted to Ki using the equation of Ki=(IC50/(1+[L]/KD) where [L] represents PGE2 concentration (10 nM) and KD the dissociation constant for [^3H]PGE2 at human EP2 receptors (40 nM). […]
The cell homogenate was centrifuged at 19000 r.p.m. for 20 min at 4° C. using a Beckman Ti-60 rotor. The resultant pellet was resuspended in TME buffer to give a final 1 mg/ml protein concentration, as determined by Biorad assay. […]
[^3H-] […] 17-phenyl PGF2 ? and non-specific binding determined with 10^−5M of unlabeled PGE2, or 17-phenyl PGF2 ? , according to receptor subtype studied.

hDP/Gqs5 = biological target: T5, hDP/Gqs5 (Homo sapiens, UniProt Q13258); assay: FLIPR calcium signal, HEK-293(EBNA) cells; type: cell-based
T5 construct: expressed in transfected cells; host or cells: HEK-293(EBNA)
T5 sequence (Q13258 1-359): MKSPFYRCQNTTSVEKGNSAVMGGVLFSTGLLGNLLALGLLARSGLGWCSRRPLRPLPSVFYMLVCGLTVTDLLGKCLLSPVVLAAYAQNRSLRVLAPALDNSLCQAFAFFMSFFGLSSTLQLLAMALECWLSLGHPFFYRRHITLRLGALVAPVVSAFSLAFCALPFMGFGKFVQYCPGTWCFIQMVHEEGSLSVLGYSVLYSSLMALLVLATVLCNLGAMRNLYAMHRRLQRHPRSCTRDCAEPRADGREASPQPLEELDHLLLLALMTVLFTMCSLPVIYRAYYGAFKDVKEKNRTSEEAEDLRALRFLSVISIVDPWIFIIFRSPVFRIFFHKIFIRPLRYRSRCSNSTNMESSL
Experimental: as §1, §2, §3, §4

hEP1 = biological target: T6, hEP1 (Homo sapiens, UniProt P34995); assay: FLIPR calcium signal, HEK-293(EBNA) cells; type: cell-based
T6 construct: expressed in transfected cells; host or cells: HEK-293(EBNA)
T6 sequence (P34995 1-402): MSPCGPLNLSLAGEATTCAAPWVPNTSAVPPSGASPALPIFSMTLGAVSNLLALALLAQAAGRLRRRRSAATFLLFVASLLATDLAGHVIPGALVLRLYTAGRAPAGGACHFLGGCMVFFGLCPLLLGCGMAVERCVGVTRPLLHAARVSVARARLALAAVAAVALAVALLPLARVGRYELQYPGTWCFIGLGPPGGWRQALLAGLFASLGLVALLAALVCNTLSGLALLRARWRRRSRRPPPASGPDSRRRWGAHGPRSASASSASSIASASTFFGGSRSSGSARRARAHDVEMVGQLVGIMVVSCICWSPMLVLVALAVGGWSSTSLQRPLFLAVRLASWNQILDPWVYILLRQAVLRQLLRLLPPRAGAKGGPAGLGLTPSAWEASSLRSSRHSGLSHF
Experimental: as §1, §2, §3, §4

hFP = biological target: T7, hFP (Homo sapiens, UniProt P43088); assay: FLIPR calcium signal, HEK-293(EBNA) cells; type: cell-based
T7 construct: expressed in transfected cells; host or cells: HEK-293(EBNA)
Experimental: as §1, §2, §3, §4

hIP = biological target: T8, hIP (Homo sapiens, UniProt P43119); assay: FLIPR calcium signal, HEK-293(EBNA) cells; type: cell-based
T8 construct: expressed in transfected cells; host or cells: HEK-293(EBNA)
Experimental: as §1, §2, §3, §4

hTP = biological target: T9, hTP (Homo sapiens, UniProt P21731); assay: FLIPR calcium signal, HEK-293(EBNA) cells; type: cell-based
T9 construct: expressed in transfected cells; host or cells: HEK-293(EBNA)
T9 sequence (P21731 1-343): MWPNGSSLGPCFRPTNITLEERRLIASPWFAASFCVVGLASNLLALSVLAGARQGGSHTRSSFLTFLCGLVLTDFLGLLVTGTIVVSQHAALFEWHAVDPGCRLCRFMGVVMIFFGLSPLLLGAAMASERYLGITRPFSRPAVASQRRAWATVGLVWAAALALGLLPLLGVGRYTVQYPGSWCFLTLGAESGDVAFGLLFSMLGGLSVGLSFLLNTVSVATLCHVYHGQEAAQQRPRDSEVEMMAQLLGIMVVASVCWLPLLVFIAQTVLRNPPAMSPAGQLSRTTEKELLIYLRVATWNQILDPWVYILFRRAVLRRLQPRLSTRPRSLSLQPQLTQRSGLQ
Experimental: as §1, §2, §3, §4

Chain of EP2 (P43116 whole entry): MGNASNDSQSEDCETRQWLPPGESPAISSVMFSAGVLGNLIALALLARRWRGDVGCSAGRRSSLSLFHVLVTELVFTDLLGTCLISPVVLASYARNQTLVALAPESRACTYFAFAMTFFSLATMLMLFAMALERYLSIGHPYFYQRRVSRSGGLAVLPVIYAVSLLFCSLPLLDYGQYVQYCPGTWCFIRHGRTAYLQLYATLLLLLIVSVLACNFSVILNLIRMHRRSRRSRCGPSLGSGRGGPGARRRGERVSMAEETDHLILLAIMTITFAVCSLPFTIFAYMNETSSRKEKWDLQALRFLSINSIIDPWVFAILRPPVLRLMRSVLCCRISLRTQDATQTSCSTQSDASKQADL
T2 sequence (P43116 whole entry): as above
T1 sequence (P35408 whole entry): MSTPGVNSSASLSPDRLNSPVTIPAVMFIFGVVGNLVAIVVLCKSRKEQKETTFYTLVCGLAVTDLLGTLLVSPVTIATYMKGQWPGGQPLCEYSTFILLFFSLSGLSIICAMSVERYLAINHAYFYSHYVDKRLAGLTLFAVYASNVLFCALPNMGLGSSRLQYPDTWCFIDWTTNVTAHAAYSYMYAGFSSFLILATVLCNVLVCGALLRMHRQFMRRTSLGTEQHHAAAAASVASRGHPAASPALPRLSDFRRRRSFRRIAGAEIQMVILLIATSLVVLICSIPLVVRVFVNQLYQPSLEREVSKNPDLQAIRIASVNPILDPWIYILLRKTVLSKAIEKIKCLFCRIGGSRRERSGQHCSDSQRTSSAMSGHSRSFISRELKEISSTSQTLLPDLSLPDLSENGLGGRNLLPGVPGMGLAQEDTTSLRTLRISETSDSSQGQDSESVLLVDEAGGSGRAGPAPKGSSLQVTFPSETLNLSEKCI
T8 sequence (P43119 whole entry): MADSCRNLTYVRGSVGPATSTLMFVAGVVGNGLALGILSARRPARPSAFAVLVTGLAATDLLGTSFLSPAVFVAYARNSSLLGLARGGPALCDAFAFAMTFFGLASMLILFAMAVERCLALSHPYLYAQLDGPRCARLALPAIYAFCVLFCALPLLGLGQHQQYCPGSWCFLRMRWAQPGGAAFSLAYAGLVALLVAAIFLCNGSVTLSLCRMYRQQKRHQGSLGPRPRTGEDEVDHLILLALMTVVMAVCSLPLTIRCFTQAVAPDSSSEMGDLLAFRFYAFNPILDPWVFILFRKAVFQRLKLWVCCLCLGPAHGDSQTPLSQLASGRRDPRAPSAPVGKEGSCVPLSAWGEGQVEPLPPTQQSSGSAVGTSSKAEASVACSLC
T7 sequence (P43088 whole entry): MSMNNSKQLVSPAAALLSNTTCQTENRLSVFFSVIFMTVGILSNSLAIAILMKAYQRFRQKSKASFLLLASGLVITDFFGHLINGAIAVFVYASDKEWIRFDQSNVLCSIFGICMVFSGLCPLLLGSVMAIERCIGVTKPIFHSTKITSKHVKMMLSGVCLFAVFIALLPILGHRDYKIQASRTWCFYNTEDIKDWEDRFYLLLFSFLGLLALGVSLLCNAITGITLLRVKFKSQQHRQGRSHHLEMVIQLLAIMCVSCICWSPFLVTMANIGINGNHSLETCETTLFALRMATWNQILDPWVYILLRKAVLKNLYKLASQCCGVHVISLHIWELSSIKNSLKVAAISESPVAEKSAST
T4 sequence (P35408 whole entry): as the sequence (P35408 whole entry) above

| Ki (EP4 receptors) | EC50 (hEP2/Gqs5) | EC50 (hEP3A/Gqi5) | EC50 (hEP4/Gqs5) | Ki (EP2) | Ca2+ Signal-EC50 (nM) DP (hDP/Gqs5) | Ca2+ Signal-EC50 (nM) EP1 (hEP1) | Ca2+ Signal-EC50 (nM) FP (hFP) | Ca2+ Signal-EC50 (nM) IP (hIP) | Ca2+ Signal-EC50 (nM) TP (hTP) | Compound |
| --- | --- | --- | --- | --- | --- | --- | --- | --- | --- | --- |
| 2360 nM | 427 nM | 449 nM | > 10000 nM | 504 nM |  |  |  |  |  | CCCCCC(O)c1ccc([C@@H]2[C@@H](C/C=C\CCCC(=O)O)[C@H](Cl)C[C@@H]2Cl)cc1 (some centres unmarked) [compound 1] |
| 1400 nM | 15 nM | 25 nM |  | 25 nM | notactive | notactive | notactive | notactive | notactive | CCCCCC(O)c1ccc([C@@H]2[C@@H](C/C=C\CCCC(=O)O)[C@H](Cl)C[C@H]2Cl)cc1 (some centres unmarked) [Entry 2] |
